The EC50 is the concentration giving half of the maximal effect. In general, IC50 refers to the concentration at which inhibition is half-maximal. By CC50 is commonly meant the concentration giving 50% cytotoxicity.

For one data set, the system named is HIV-1 IIIB. In words: Inactivation of cell-free HIV-1 virions (PEG-6000 precipitation, p24 ELISA). Format: cell-based. The following applies: Human immunodeficiency virus 1, IIIB virus inactivation.
Another data set concerns the target T1, HIV-1 HXB2 gp120 (Human immunodeficiency virus type 1 group M subtype B, UniProt P04578).
T1 construct: CHO-WT cells expressing HIV-1 HXB2 gp120; host or cells: CHO-WT cells
In words: Flow cytometry competition with gp120 CD4bs-targeting mAbs on CHO-WT cells. It is filed as binding. The following applies: 100 µM. As to the method: Flow cytometry was used to detect compounds that competed with gp120 CD4bs-targeting mAbs for binding to gp120. In brief, 100 µL of FD016 at a concentration of 100 µM or PBS was first incubated with CHO-WT cells expressing HIV-1 HXB2 gp120 for 30 min at room temperature, and then gp120 CD4bs-targeting mAbs (5 μg/mL, 100 µL) and FITC-labeled goat anti-human secondary antibody were added successively. After three washes, the cells were analyzed with flow cytometry. ELISA was carried out to detect the activity of compounds that inhibit the binding of soluble CD4 (sCD4) or gp120 CD4bs-targeting mAbs to gp120 as previously described ([Si et al., 2004]; [Curreli et al., 2014]). Briefly, for sCD4 and gp120 binding, 50 µL of HIV-1 IIIB gp120 at 0.5 μg/mL was captured on polystyrene plate coated with sheep anti-gp120 antibody D7324 (Aalto Bio Reagents). sCD4 (ImmunoDiagnostics, Inc.) at 200 ng/mL was then added in the presence of an equal volume of different concentrations of compounds or PBS and incubated at 37°C for 1 h. […] After adding 3,3′,5,5′-tetramethylbenzidine chromogen substrate and sulfuric acid, the absorbance at 450 nm (A450) was recorded using a Microplate Reader (Tecan, Männedorf, Switzerland).
(Flow cytometry measures light scatter and fluorescence of single cells or particles in a stream.)

The next data set concerns HIV-1 Bal (R5). In words: Inhibition of HIV-1 infection (p24 ELISA). It is filed as cell-based.
The subject of the next data set is HIV-1 Bal. In words: Inactivation of cell-free HIV-1 virions (PEG-6000 precipitation, p24 ELISA). It is filed as cell-based.
A short description of another data set: Cytotoxicity (CCK-8). The following applies: human. It is filed as cell-based. As to the method: Cell viability was detected following the instructions in the protocol provided in the cell counting kit-8 (CCK-8; Dojindo Molecular Technologies, Gaithersburg, MD, USA) as previously described ([Yang et al., 2018]). Briefly, MT-2 cells and CEMx174 517 5.25 M7 cells (3 × 10^4/well) were incubated with compounds at different concentrations at 37°C for 48 h. Then, the supernatant was discarded, and CCK8 diluted 10 times with fresh medium was added (200 μL/well). After 2–6 h of incubation at 37°C, the absorbance at 450 nm was measured using a microplate reader (Tecan, Männedorf, Switzerland).

The test system of the next data set is HIV-1 IIIB (X4). Kind of data set: Inhibition of HIV-1 infection (p24 ELISA). Format: cell-based.
The target of data set [1] is T2, 6HB formation between N36 and C34-biotin (Human immunodeficiency virus type 1 group M subtype B, UniProt P04578).
T2 construct: preincubated with N36 peptide (2 μM, 50 μL) at 37°C for 1 h; purchased NIH AIDS Reagent Program
In words: ELISA inhibition of six-helix bundle formation. It is filed as biochemical, HIV-1. To be noted: IC50, inhibition of 6HB formation between N36 and C34-biotin, peptides 0.5 μM final. Background: ELISA stands for enzyme-linked immunosorbent assay.
Description: An inhibitor (compound or C-peptide control) at graded concentrations was preincubated with N36 peptide (2 μM, 50 μL) at 37°C for 1 h. […] Subsequently, 50 μL of the mixture were added to the wells of the NC-1-coated plate, followed by incubation for 1 h. Then, HRP-labeled streptavidin and the substrate were added sequentially. The optical density at 450 nm was measured using a microplate reader (Tecan, Männedorf, Switzerland).

In a further data set the test system is KNH1135 (A, R5). Kind of data set: microbe, parasite or virus in culture. Format: cell-based, HIV-1. The following applies: inactivation of cell-free virions, clinical virus KNH1135 (A, R5); means ± SD.
A further data set concerns PBL288 (C, R5). Kind of data set: Inactivation of cell-free HIV-1 clinical virus. To be noted: inactivation of cell-free virions, means ± SD. It is filed as cell-based.
The test system of a further data set is SM145/GS 016 (C, R5). Kind of data set: Inactivation of cell-free HIV-1 clinical virus. It is filed as cell-based. To be noted: inactivation of cell-free virions, means ± SD.
In the next data set the test system is 92/TH/009 (A/E, R5). In words: Inactivation of cell-free HIV-1 clinical virus. The following applies: inactivation of cell-free virions, means ± SD. Format: cell-based.
Where [2] appears, read: Human immunodeficiency virus 1, laboratory-adapted strain Bal, CEMx174 5.25 M7 cells, p24 ELISA, read-out: IC50, inhibition of HIV-1 Bal infection.
[3] abbreviates: CEMx174 5.25 M7 cells, read-out: CC50, CEMx174 5.25 M7 cell.
Setting [4] is: MT-2 cells, read-out: CC50, MT-2 cell.
The mark [5] stands for this setting: Human immunodeficiency virus 1, MT2, laboratory-adapted strain IIIB, MT-2 cells, p24 ELISA, read-out: IC50, inhibition of HIV-1 IIIB infection.

Like-named read-outs stand apart in the source and are kept apart here.

For the compound `CC1(C)CC(NC(=O)C(=O)Nc2ccc(Cl)c(F)c2)CC(C)(C)N1` [FD016, N^1-(4-Chloro-3-Fluorophenyl)-N^2-(2,2,6,6-Tetramethylpiperidin-4-yl) Oxalamide], the EC50 was > 10000 nM with HIV-1 IIIB (alone, read-out: EC50 of FD016, Alone); 2510 nM in the data set on HIV-1 IIIB (in mixture with FD017, read-out: EC50 of FD016, In mixture); > 20000 nM with HIV-1 Bal (Human immunodeficiency virus 1, Bal virus inactivation, alone, read-out: EC50 of FD016, Alone); 2630 nM in the data set with HIV-1 Bal (Human immunodeficiency virus 1, Bal virus inactivation, in mixture with FD017, read-out: EC50 of FD016, In mixture). For the same compound, the “Inhibition of gp120 CD4bs mAbs (B12 and N6) binding to gp120-expressing CHO cells” value on HIV-1 HXB2 gp120 is “could inhibit the interaction of gp120 and CD4bs-targeting mAbs effectively”. For the same compound, the IC50 in the data set with HIV-1 Bal (R5) (Human immunodeficiency virus 1, Bal, combination experiment, alone, read-out: IC50 of FD016, Alone) was 18800 nM; in the data set with HIV-1 Bal (R5) (Human immunodeficiency virus 1, Bal, in mixture with FD017, read-out: IC50 of FD016, In mixture) it was 1820 nM; in the data set on HIV-1 Bal (R5) (setting [2]), 17000 nM; in the data set on HIV-1 IIIB (X4) (setting [5]) it was 5930 nM; in the data set with HIV-1 IIIB (X4) (Human immunodeficiency virus 1, IIIB, combination experiment, alone, read-out: IC50 of FD016, Alone), 4400 nM; in the data set with HIV-1 IIIB (X4) (Human immunodeficiency virus 1, IIIB, in mixture with FD017, read-out: IC50 of FD016, In mixture), 1190 nM. Also, the CC50 at 48 h in “Cytotoxicity (CCK-8)” (setting [3]) and in the data set “Cytotoxicity (CCK-8)” (setting [4]) was > 50 µM each time.
On to `O=C(O)c1cc(-c2ccc(/C=C3\SC(=S)N(CCc4ccc(O)cc4)C3=O)o2)ccc1Cl` [FD017, (Z)-2-Chloro-5-(5-((3-(4-Hydroxyphenethyl)-4-oxo-2-Thioxothiazolidin-5-ylidene)methyl)furan-2-yl)benzoic Acid], for which the half-maximal effective concentration (EC50) with HIV-1 IIIB (alone, read-out: EC50 of FD017, Alone) was > 10000 nM; in the data set with HIV-1 IIIB (in mixture with FD016, read-out: EC50 of FD017, In mixture) it was 1210 nM; in the data set with HIV-1 Bal (Human immunodeficiency virus 1, Bal virus inactivation, alone, read-out: EC50 of FD017, Alone), > 5000 nM; with HIV-1 Bal (Human immunodeficiency virus 1, Bal virus inactivation, in mixture with FD016, read-out: EC50 of FD017, In mixture), 1380 nM. Moreover, the IC50 in the data set with HIV-1 Bal (R5) (Human immunodeficiency virus 1, Bal, combination experiment, alone, read-out: IC50 of FD017, Alone) was 1480 nM; with HIV-1 Bal (R5) (Human immunodeficiency virus 1, Bal, in mixture with FD016, read-out: IC50 of FD017, In mixture), 910 nM; with HIV-1 Bal (R5) (setting [2]), 830 nM; in [1], 1360 nM; in the data set on HIV-1 IIIB (X4) (setting [5]) it was 1440 nM; in the data set on HIV-1 IIIB (X4) (Human immunodeficiency virus 1, IIIB, combination experiment, alone, read-out: IC50 of FD017, Alone), 1800 nM. The IC50 in the data set on HIV-1 IIIB (X4) (Human immunodeficiency virus 1, IIIB, in mixture with FD016, read-out: IC50 of FD017, In mixture) is 590 nM. In addition, the values for the CC50 at 48 h in “Cytotoxicity (CCK-8)” (setting [3]) and in the data set “Cytotoxicity (CCK-8)” (setting [4]) were 39.8 µM and 47.9 µM, respectively.
For Maraviroc [reference compound], the EC50 in the data set with KNH1135 (A, R5) was > 500 nM; with PBL288 (C, R5), > 500 nM; in the data set on HIV-1 Bal (cell-free virions, 1 h at 4°C, PEG-6000 precipitation, read-out: EC50, inactivation of HIV-1 Bal), > 500 nM; in the data set with SM145/GS 016 (C, R5), > 500 nM; in the data set on 92/TH/009 (A/E, R5), > 500 nM. In the data set on HIV-1 Bal (R5) (laboratory-adapted strain Bal, CEMx174 5.25 M7 cells, p24 ELISA, read-out: IC50, inhibition of HIV-1 Bal infection), the half-inhibitory concentration (IC50) stood at 1 nM.

The values above are taken from article PMC7868322, “Rational Design of A Novel Small-Molecule HIV-1 Inactivator Targeting Both gp120 and gp41 of HIV-1” (Frontiers in Pharmacology, 2021).
